Values of other authors, collected in PubChem BioAssay AID1259409 (Chemical Carcinogenesis Research Information System (CCRIS), 2018).

Test system: rodent chemically induced tumor inhibition, incidence and multiplicity
Test: CCRIS tumor inhibitor studies

For `CC1=CCCC(C)(C)[C@H]1/C=C/C(C)=C/C=C/C(C)=C/C=C/C=C(C)/C=C/C=C(C)/C=C/C1=C(C)CCCC1(C)C`, the “tumour outcome (control, treated, inhibition, significance)” value (Carcinogen: 4-NITROQUINOLINE-1-OXIDE, 56-57-5, Dose [Inhibitor]: 0, 0.05% IN DRINKING WATER AD LIBITUM (STUDY DURATION: 30 WK), Route [Inhibitor]: ORAL, Species: MOUSE, Strain/Sex: DDY/MALE, Target Tissue: Type of Lesion: LUNG: TUMOR, Dose [Carcinogen]: 10 MG/KG BW IN OLIVE OIL/CHOLESTEROL (20:1) ONCE, Promoter: GLYCEROL, 56-81-5) is given as 94%, 73%, 22%, not significant, the “tumour outcome (control, treated, inhibition, significance)” value (Carcinogen: 4-NITROQUINOLINE-1-OXIDE, 56-57-5, Dose [Inhibitor]: 0, 0.05% IN DRINKING WATER BEGINNING 5 WK POST CARCINOGEN TREATMENT AND CONTINUING FOR 25 WK (STUDY DURATION: 30 WK), Route [Inhibitor]: ORAL, Species: MOUSE, Strain/Sex: DDY/MALE, Target Tissue: Type of Lesion: LUNG: TUMORS, Dose [Carcinogen]: 10 MG/KG BW IN OLIVE OIL AND CHOLESTEROL (20:1) ONCE, Promoter: NONE USED) is given as 94%, 73%, 22%, not calculated and the “tumour outcome (control, treated, inhibition, significance)” value (Carcinogen: 7,12-DIMETHYLBENZ[A]ANTHRACENE, 57-97-6, Dose [Inhibitor]: 0, 0.05% IN DRINKING WATER AD LIBITUM FOR 30 WK BEGINNING 1 WK POST CARCINOGEN DOSE (STUDY DURATION: 31 WK), Route [Inhibitor]: ORAL, Species: MOUSE, Strain/Sex: ICR/FEMALE, Target Tissue: Type of Lesion: SKIN: TUMOR, Dose [Carcinogen]: 100 UG ONCE, Promoter: 12-O-TETRADECANOYLPHORBOL-13-ACETATE, 16561-29-8) is given as 13/16 (81%), 7/16 (44%), 46%, not significant. For the same compound, the “tumour outcome (control, treated, inhibition, significance)” value (Carcinogen: 7,12-DIMETHYLBENZ[A]ANTHRACENE, 57-97-6, Dose [Inhibitor]: 0, 200 NMOL IN 200 µL ACETONE 2/WK BEGINNING 1 WK POST CARCINOGEN DOSE APPLIED SIMULTANEOUSLY WITH PROMOTER FOR 20 WK (S, Route [Inhibitor]: DERMAL, Species: MOUSE, Strain/Sex: ICR/?, Target Tissue: Type of Lesion: SKIN: PAPILLOMA, Dose [Carcinogen]: 100 UG ONCE, Promoter: 12-O-TETRADECANOYLPHORBOL-13-ACETATE, 16561-29-8) was 69%, 25%, 64%, not calculated, the “tumour outcome (control, treated, inhibition, significance)” value (Carcinogen: 7,12-DIMETHYLBENZ[A]ANTHRACENE, 57-97-6, Dose [Inhibitor]: 0, 200 NMOL IN 200 µL ACETONE 2/WK FOR 40 WK APPLIED SIMULTANEOUSLY WITH PROMOTER BEGINNING 1 WK POST CARCINOGEN DOSE (S, Route [Inhibitor]: DERMAL, Species: MOUSE, Strain/Sex: ICR/FEMALE, Target Tissue: Type of Lesion: SKIN: TUMOR, Dose [Carcinogen]: 100 UG ONCE, Promoter: 12-O-TETRADECANOYLPHORBOL-13-ACETATE, 16561-29-8) was 10/15 (67%), 5/15 (33%), 51%, p<0.01 and the “tumour outcome (control, treated, inhibition, significance)” value (Carcinogen: 7,12-DIMETHYLBENZ[A]ANTHRACENE, 57-97-6, Dose [Inhibitor]: 0, 400 NMOL IN 200 µL ACETONE 2/WK BEGINNING 1 WK POST CARCINOGEN DOSE APPLIED SIMULTANEOUSLY WITH PROMOTER FOR 20 WK (S, Route [Inhibitor]: DERMAL, Species: MOUSE, Strain/Sex: ICR/?, Target Tissue: Type of Lesion: SKIN: PAPILLOMA, Dose [Carcinogen]: 100 UG ONCE, Promoter: 12-O-TETRADECANOYLPHORBOL-13-ACETATE, 16561-29-8) was 69%, 13%, 81%, not calculated. The “tumour outcome (control, treated, inhibition, significance)” value (Carcinogen: NONE USED, Dose [Inhibitor]: 0, 0.005% IN DRINKING WATER AD LIBITUM FOR 40 WK (STUDY DURATION: 40 WK), Route [Inhibitor]: ORAL, Species: MOUSE, Strain/Sex: C3H/HE/MALE, Target Tissue: Type of Lesion: LIVER: TUMOR, Promoter: NONE USED) was 100%, 100%, 0%, not significant, the “tumour outcome (control, treated, inhibition, significance)” value (Carcinogen: NONE USED, Dose [Inhibitor]: 0, 0.005% IN DRINKING WATER FOR 40 WK (STUDY DURATION: 40 WK), Route [Inhibitor]: ORAL, Species: MOUSE, Strain/Sex: C3H/HE/MALE, Target Tissue: Type of Lesion: LIVER: TUMORS, Promoter: NONE USED) was 16/16 (100%), 15/15 (100%), 0%, not significant and the “tumour outcome (control, treated, inhibition, significance)” value (Carcinogen: NONE USED, Dose [Inhibitor]: 0, 0.05% IN DRINKING WATER AD LIBITUM FOR 40 WK (STUDY DURATION: 40 WK), Route [Inhibitor]: ORAL, Species: MOUSE, Strain/Sex: C3H/HE/MALE, Target Tissue: Type of Lesion: LIVER: TUMOR, Promoter: NONE USED) was 100%, 94%, 6%, not significant. The “tumour outcome (control, treated, inhibition, significance)” value (Carcinogen: NONE USED, Dose [Inhibitor]: 0, 0.05% IN DRINKING WATER FOR 40 WK (STUDY DURATION: 40 WK), Route [Inhibitor]: ORAL, Species: MOUSE, Strain/Sex: C3H/HE/MALE, Target Tissue: Type of Lesion: LIVER: TUMORS, Promoter: NONE USED) was 16/16 (100%), 16/17 (94%), 6%, not calculated.
For `C[C@@H]1O[C@@H](OC[C@H]2O[C@@H](Oc3c(-c4ccc(O)c(O)c4)oc4cc(O)cc(O)c4c3=O)[C@H](O)[C@@H](O)[C@@H]2O)[C@H](O)[C@H](O)[C@H]1O`, the “tumour outcome (control, treated, inhibition, significance)” value (Carcinogen: 7,12-DIMETHYLBENZ[A]ANTHRACENE, 57-97-6, Dose [Inhibitor]: 0, 0.2 ML OF A 1% SOLUTION 1/D FOR 2 WK APPLIED 5 MIN POST EACH CARCINOGEN DOSE THEN 1/D FOR 4 WK DURING PROMOTION STAGE, Route [Inhibitor]: DERMAL, Species: MOUSE, Strain/Sex: SWISS/MALE, Target Tissue: Type of Lesion: SKIN: PAPILLOMA, Dose [Carcinogen]: 0.2 ML OF A 0.24% SOLUTION IN DMSO 1/D FOR 2 WK, Promoter: CROTON OIL, 8001-28-3) is given as 23/23 (100%), 14/24 (58%), 42%, not calculated, the “tumour outcome (control, treated, inhibition, significance)” value (Carcinogen: 7,12-DIMETHYLBENZ[A]ANTHRACENE, 57-97-6, Dose [Inhibitor]: 0, 0.2 ML OF A 1% SOLUTION 1/D FOR 2 WK APPLIED 5 MIN PRIOR TO EACH CARCINOGEN DOSE (STUDY DURATION: 20 WK), Route [Inhibitor]: DERMAL, Species: MOUSE, Strain/Sex: SWISS/MALE, Target Tissue: Type of Lesion: SKIN: PAPILLOMA, Dose [Carcinogen]: 0.2 ML OF A 0.24% SOLUTION IN DMSO 1/D FOR 2 WK, Promoter: CROTON OIL, 8001-28-3) is given as 23/23 (100%), 21/23 (91%), 9%, not calculated and the “tumour outcome (control, treated, inhibition, significance)” value (Carcinogen: AZOXYMETHANE, 25843-45-2, Dose [Inhibitor]: 0, 1% IN DIET FOR DURATION OF STUDY (STUDY DURATION: 48 WK), Route [Inhibitor]: ORAL, Species: MOUSE, Strain/Sex: CF-1/FEMALE, Target Tissue: Type of Lesion: COLON: TUMOR, Dose [Carcinogen]: 10 MG/KG BW 3 TIMES, Promoter: NONE USED) is given as 8/32 (25%), 9/35 (26%), -4%, not significant. The “tumour outcome (control, treated, inhibition, significance)” value (Carcinogen: AZOXYMETHANE, 25843-45-2, Dose [Inhibitor]: 0, 4% IN DIET FOR DURATION OF STUDY (STUDY DURATION: 48 WK), Route [Inhibitor]: ORAL, Species: MOUSE, Strain/Sex: CF-1/FEMALE, Target Tissue: Type of Lesion: COLON: TUMOR, Dose [Carcinogen]: 10 MG/KG BW 3 TIMES, Promoter: NONE USED) was 8/32 (25%), 3/31 (10%), 60%, not significant.
In the case of `CCNC(=O)/C=C(C)/C=C/C=C(C)/C=C/c1c(C)cc(OC)c(C)c1C`, the “tumour outcome (control, treated, inhibition, significance)” value (Carcinogen: N,N-DIMETHYLNITROSAMINE, 62-75-9, Dose [Inhibitor]: 60 MG/KG OF DIET DAILY FOR 26 WK STARTING 2 D AFTER CARCINOGEN TREATMENT AT 6 WK OF AGE AND THEN OBSERVED UNTIL DEATH (S, Route [Inhibitor]: ORAL, Species: RAT, Strain/Sex: WISTAR/FEMALE, Target Tissue: Type of Lesion: KIDNEY: EPITHELIAL TUMOR, Dose [Carcinogen]: 40 MG/KG BW ONCE, Promoter: NONE USED) is given as 13/27 (48%), 21/35 (60%), -25%, not significant, the “tumour outcome (control, treated, inhibition, significance)” value (Carcinogen: N,N-DIMETHYLNITROSAMINE, 62-75-9, Dose [Inhibitor]: 60 MG/KG OF DIET DAILY FOR 26 WK STARTING 2 D AFTER CARCINOGEN TREATMENT AT 6 WK OF AGE AND THEN OBSERVED UNTIL DEATH (S, Route [Inhibitor]: ORAL, Species: RAT, Strain/Sex: WISTAR/FEMALE, Target Tissue: Type of Lesion: KIDNEY: MESENCHYMAL TUMOR, Dose [Carcinogen]: 40 MG/KG BW ONCE, Promoter: NONE USED) is given as 22/27 (82%), 26/35 (74%), 10%, not significant and the “tumour outcome (control, treated, inhibition, significance)” value (Carcinogen: N-METHYL-N-NITROSOUREA, 684-93-5, Dose [Inhibitor]: 60 MG/KG OF DIET DAILY STARTING 5 D AFTER FINAL INSTILLATION OF CARCINOGEN AND CONTINUING THROUGH END OF STUDY (STUDY DU, Route [Inhibitor]: ORAL, Species: RAT, Strain/Sex: F344/MALE, Target Tissue: Type of Lesion: COLON: INVASIVE TUBULOPAPILLARY ADENOCARCINOMA, Dose [Carcinogen]: 0.5 MG 2/WK FOR 8 WK, Promoter: NONE USED) is given as 33%, 19%, 42%, not significant. The “tumour outcome (control, treated, inhibition, significance)” value (Carcinogen: N-METHYL-N-NITROSOUREA, 684-93-5, Dose [Inhibitor]: 60 MG/KG OF DIET DAILY STARTING 5 D AFTER FINAL INSTILLATION OF CARCINOGEN AND CONTINUING THROUGH END OF STUDY (STUDY DU, Route [Inhibitor]: ORAL, Species: RAT, Strain/Sex: F344/MALE, Target Tissue: Type of Lesion: COLON: INVASIVE TUBULOPAPILLARY ADENOCARCINOMA, Dose [Carcinogen]: 1 MG 2/WK FOR 8 WK, Promoter: NONE USED) was 80%, 85%, -6%, not significant and the “tumour outcome (control, treated, inhibition, significance)” value (Carcinogen: N-METHYL-N-NITROSOUREA, 684-93-5, Dose [Inhibitor]: 60 MG/KG OF DIET DAILY STARTING 5 D AFTER FINAL INSTILLATION OF CARCINOGEN AND CONTINUING THROUGH END OF STUDY (STUDY DU, Route [Inhibitor]: ORAL, Species: RAT, Strain/Sex: F344/MALE, Target Tissue: Type of Lesion: COLON: INVASIVE TUBULOPAPILLARY ADENOCARCINOMA, Dose [Carcinogen]: 2 MG 2/WK FOR 8 WK, Promoter: NONE USED) was 95%, 100%, -5%, not significant.
